According to patent US20080004282A1, “Compositions and methods for modulating gated ion channels” (PainCeptor Pharma Corporation, priority 2006, published 2008):

Test system: chemically-induced spontaneous pain evoked by intraplantar injection of formalin
Assay: Formalin test (model of acute tonic pain)
Type: in vivo
Details: rat; for pain intensity as evaluated by the flinching or licking behaviors: s.c. 30 min prior to formalin injection; for ED50: sc, s.c. 30 min prior to formalin, licking and biting episodes in phase IIa, read-out: ED50, effective dose where the pain score is reduced by half
Description: Model of Acute Tonic Pain
This example describes a procedure for the in vivo assessment of the inhibitory activity of the compounds of the present invention.
A number of well-established models of pain are described in the literature and are known to the skilled in the art (see, for example, Table 1). This example describes the use of the Formalin test.
Male Sprague-Dawley rats are housed together in groups of three animals under standard conditions with unrestricted access to food and water. All experiments are conducted according to the ethical guidelines for investigations of experimental pain in conscious animals (Zimmerman, 1983)
Assessment of formalin-induced flinching behavior in normal, uninjured rats (body weight 150-180 g) is made with the use of an Automated Nociception Analyser (University of California, San Diego, USA). Briefly, this involves placing a small C-shaped metal band (10 mm wide×27 mm long) on the hindpaw of the rat to be tested. The rats (four rats are included in each testing session) are then placed in a cylindrical plexiglass observation chamber (diameter 30.5 cm and height 15 cm) for 20 min for adaptation purposes prior to being administered drug or vehicle according to the experimental paradigm being followed. […] Rats are then returned to their separate observation chambers, each of which are in turn situated upon an enclosed detection device consisting of two electromagnetic coils designed to produce an electromagnetic field in which movement of the metal band could be detected. […] A sampling interval of 1 min is used and on the basis of the resulting response patterns 5 phases of nociceptive behaviour are identified and scored: first phase (P1; 0-5 min), interphase (Int; 6-15 min), second phase (P2; […]), phase 2A (P2A; 16-40 min) and phase 2B (P2B; 41-60 min).
Nociceptive behavior is also determined manually every 5 min by measuring the amount of time spent in each of four behavioral categories: 0, treatment of the injected hindpaw is indistinguishable from that of the contralateral paw; 1, the injected paw has little or no weight placed on it; 2, the injected paw is elevated and is not in contact with any surface; 3, the injected paw is licked, bitten, or shaken. A weighted nociceptive score, ranging from 0 to 3 is calculated by multiplying the time spent in each category by the category weight, summing these products, and dividing by the total time for each 5 min block of time. […] On the basis of the resulting response patterns, […] of nociceptive behavior are identified and scored: first phase (P1; 0-5 min), interphase (Int; 6-15 min), second phase (P2; […]), phase 2A (P2A; 16-40 min) and phase 2B (P2B; 41-60 min). […]

| SMILES | pain intensity as evaluated by the flinching or licking behaviors | ED50 |
| --- | --- | --- |
| CCN1CCc2c(-c3ccccc3)cc(C#N)c(N)c2C1 [Compound 12, 8-Amino-2-ethyl-5-phenyl-1,2,3,4-tetrahydro-isoquinoline-7-carbonitrile] | dose-dependent reduction | 4 mg/kg |
| CCN1CCc2c(-c3cc(Cl)ccc3OC)cc(C#N)c(N)c2C1 [Compound 44] | dose-dependent reduction | 22 mg/kg |
